Measured values taken from patent publication US20230129326A1, “METHODS TO PREVENT SARS-COV-2 INFECTION AND TREAT COVID-19” (priority 2020, published 2023).
≈ marks a conversion by molar mass, not a printed value. Entries after “also recorded” stand apart in the source; their conditions may differ. Read-outs that look alike come from different tables or passages of the source.

Legend:
[1] = tested on: SARS-CoV-2 isolate USA-UF-1/2020; assay: microbe, parasite or virus in culture; format: cell-based; conditions: for EC50: Severe acute respiratory syndrome coronavirus 2, Vero C1008, read-out: EC50, 50% inhibition of SARS-CoV-2 isolate USA-UF-1/2020 infection of Vero E6 cells
SARS-CoV-2 infection = assay: Drug usage versus SARS-CoV-2 infection in UCSF Health population; format: in vivo; conditions: for Odds ratio: drug usage vs SARS-CoV-2 infection; for correlation of usage with protection from SARS-CoV-2 infection: statistically significant
ACE2 = ACE2 (Homo sapiens, UniProt Q9BYF1); format: biochemical
Chain of ACE2 (Q9BYF1 18-805): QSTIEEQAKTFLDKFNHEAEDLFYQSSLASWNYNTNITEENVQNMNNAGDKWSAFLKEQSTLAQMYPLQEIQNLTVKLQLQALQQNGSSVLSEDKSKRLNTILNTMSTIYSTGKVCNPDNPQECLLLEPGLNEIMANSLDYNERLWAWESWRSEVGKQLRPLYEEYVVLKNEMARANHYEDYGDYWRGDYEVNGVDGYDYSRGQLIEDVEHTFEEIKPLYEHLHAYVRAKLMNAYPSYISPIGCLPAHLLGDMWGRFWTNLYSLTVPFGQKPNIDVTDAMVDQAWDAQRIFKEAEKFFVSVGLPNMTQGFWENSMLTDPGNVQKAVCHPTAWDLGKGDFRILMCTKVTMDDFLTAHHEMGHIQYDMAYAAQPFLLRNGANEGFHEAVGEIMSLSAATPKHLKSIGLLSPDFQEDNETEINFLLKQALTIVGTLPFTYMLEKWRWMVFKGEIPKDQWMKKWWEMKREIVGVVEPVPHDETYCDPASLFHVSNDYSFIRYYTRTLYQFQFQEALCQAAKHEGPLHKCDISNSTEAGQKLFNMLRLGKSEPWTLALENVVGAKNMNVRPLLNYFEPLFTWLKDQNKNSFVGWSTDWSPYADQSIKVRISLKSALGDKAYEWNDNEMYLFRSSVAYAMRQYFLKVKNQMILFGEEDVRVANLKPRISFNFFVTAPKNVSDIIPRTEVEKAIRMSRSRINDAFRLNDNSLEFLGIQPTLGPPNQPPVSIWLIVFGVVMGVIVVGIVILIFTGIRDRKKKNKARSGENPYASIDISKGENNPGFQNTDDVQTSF

[2] = molecular target: ACE2/SARS spike protein interaction (Homo sapiens, UniProt Q9BYF1); format: cell-based, SARS-CoV
Chain of ACE2/SARS spike protein interaction (Q9BYF1 18-805 limits assumed): as the sequence (Q9BYF1 18-805) above

SARS-CoV-2 = assay: N protein copies by qPCR in VeroE6 cells infected with SARS-CoV-2; format: cell-based; conditions: VeroE6, MOI 0.01, 48 h; drug by itself
[3] = tested on: SARS-CoV-2 virus (isolate USA-WA1/2020); assay: microbe, parasite or virus in culture; format: cell-based
[4] = tested on: SARS-CoV-2 isolate USA-UF-1/2020; format: cell-based
[5] = Cytotoxicity (50% cytotoxic concentration); format: cell-based
SARS-CoV-2 Strain WA-1 = tested on: SARS-CoV-2 Strain WA-1; set-up: species or system hACE2-transgenic mice; conditions: mouse, in vivo
[6] = set-up: species or system mice; conditions: mouse, in vivo

Question: Which “direct antiviral activity against SARS-CoV-2 isolates in vitro” value (“direct antiviral activity” for short) [1] does the source give for `CN1CCCC(n2nc(Cc3ccc(Cl)cc3)c3ccccc3c2=O)CC1` (centres unmarked) [azelastine] here?
Answer: exhibited direct antiviral activity

Question: And the EC50 [1]?
Answer: 2.24 µg/mL (≈ 5.87 µM)

Question: What about the Odds ratio (SARS-CoV-2 infection) of the same molecule?
Answer: 0.16

Question: What about the “correlation of usage with protection from SARS-CoV-2 infection” value (SARS-CoV-2 infection) of the same molecule?
Answer: correlated with protection from SARS-CoV-2 infection

Question: For `CN(C)CCOC(c1ccccc1)c1ccccc1` [diphenhydramine], which “direct antiviral activity” value [1] is on record?
Answer: exhibited direct antiviral activity

Question: With `CC(CCc1ccccc1)NCC(O)c1ccc(O)c(C(N)=O)c1` (centres unmarked) [labetalol] as the molecule, how does the “ACE2 binding activity (velocity of ACE2)” value (ACE2) read?
Answer: Enhanced velocity of ACE2

Question: Which “ACE2/SARS spike protein interaction” value [2] does the source give for `NCCNCCN1CC1` [N-(2-aminoethyl)-1 aziridine-ethanamine, N-(2-aminoethyl)-1-aziridine-ethanamine] here?
Answer: inhibited ACE2 interactions with SARS-CoV spike protein; also recorded: Inhibits ACE2/SARS spike protein interaction

Question: What about the “SARS S-glycoprotein-mediated cell fusion” value [2] of the same molecule?
Answer: effective in blocking the SARS coronavirus spike protein-mediated cell fusion; also recorded: inhibits SARS S-glycoprotein-mediated cell fusion; also recorded: inhibition of SARS S-glycoprotein-mediated cell fusion

Question: And the “ACE2 binding activity (velocity of ACE2)” value (ACE2)?
Answer: Inhibits velocity of ACE2

Question: Which “ACE2 binding activity (velocity of ACE2)” value (ACE2) does the source give for `CCN(CC)CCCN(c1ccccc1)C1Cc2ccccc2C1` [Aprindine, aprindine] here?
Answer: Inhibited velocity of ACE2

Question: With `N=C(N)c1ccc(/N=N/Nc2ccc(C(=N)N)cc2)cc1` [diminazene] as the molecule, how does the “ACE2 binding activity (velocity of ACE2)” value (ACE2) read?
Answer: Enhanced velocity of ACE2

Question: Which “ACE2/SARS spike protein interaction” value [2] does the source give for `NCCNCCNCCN` [Triethylenetetramine, triethylenetetramine] here?
Answer: Inhibits ACE2/SARS spike protein interaction

Question: And the “ACE2 binding activity (velocity of ACE2)” value (ACE2)?
Answer: Inhibits velocity of ACE2

Question: With `CC(CN1c2ccccc2Sc2ccccc21)N(C)C` (centres unmarked) [Promethazine] as the molecule, how does the “reduction of viral replication in vitro” value (SARS-CoV-2) read?
Answer: ~100 ×

Question: For `O=c1c(O)c(-c2cc(O)c(O)c(O)c2)oc2cc(O)cc(O)c12` [Myricetin, myricetin], which “in vitro activity against SARS-CoV-2” value [3] is on record?
Answer: observed to have in vitro activity

Question: Which “ACE2 binding activity (velocity of ACE2)” value (ACE2; hydrochloride) does the source give for `CN(C)CC/C=C1/c2ccccc2Sc2ccc(Cl)cc21.Cl` [Minithixen, Chlorprothixene hydrochloride] here?
Answer: Inhibited velocity of ACE2

Question: With `OCCOCCN1CCN(C(c2ccccc2)c2ccc(Cl)cc2)CC1` (centres unmarked) [hydroxyzine] as the molecule, how does the “ACE2 binding activity (velocity of ACE2)” value (ACE2) read?
Answer: inhibited ACE2 activity; also recorded: Inhibited velocity of ACE2

Question: What about the “direct antiviral activity” value [1] of the same molecule?
Answer: exhibited direct antiviral activity

Question: What about the EC50 [1] of the same molecule?
Answer: 15.3 µg/mL (≈ 40.8 µM)

Question: And the “level of SARS-CoV-2 mRNA expressed in the cells” value [4]?
Answer: significantly lowered

Question: And the 50% cytotoxic concentration [5]?
Answer: approximately 50 μg/ml

Question: What about the Odds ratio (SARS-CoV-2 infection) of the same molecule?
Answer: 0.76

Question: What about the viral burden [3] of the same molecule?
Answer: lowered viral burden to below the level of detection

Question: And the EC50 ([3]; Severe acute respiratory syndrome coronavirus 2, Vero C1008, 48 h, read-out: EC50, viral burden by plaque assay)?
Answer: 11.3 µg/mL (≈ 30.1 µM)

Question: And the EC50 ([3]; Severe acute respiratory syndrome coronavirus 2, Vero C1008, read-out: anti-SARS-CoV-2 activity EC50)?
Answer: 11.3 µg/mL (≈ 30.1 µM)

Question: For `CN(C)CCC(c1ccc(Br)cc1)c1ccccn1` (centres unmarked) [Brompheniramine], which Odds ratio (SARS-CoV-2 infection) is on record?
Answer: 0.76

Question: Which Odds ratio (SARS-CoV-2 infection) does the source give for `CN(C)CCC(c1ccc(Cl)cc1)c1ccccn1` (centres unmarked) [chlorpheniramine] here?
Answer: 0.23

Question: And the “correlation of usage with protection from SARS-CoV-2 infection” value (SARS-CoV-2 infection)?
Answer: correlated with protection from SARS-CoV-2 infection

Question: What does the source list for LQSYGFQPTNGV peptide?
Answer: lungs at gross necropsy (SARS-CoV-2 Strain WA-1): some damage/abscesses in the lungs; survival at 5 dpi (SARS-CoV-2 Strain WA-1): survived 5 dpi; viral load in the lungs (plaque forming units) (SARS-CoV-2 Strain WA-1): low plaque forming units per liter in the lungs; immune response in mice [6]: induced a strong immune response
